For twelve compounds, EC50 results are on record in patent US11964990B2, “1,3,4,7-tetrahydro-2H-pyrrolo[3′,2′:5,6]pyrido[2,3-b][1,4]oxazepine bcl-2 inhibitors” (AbbVie Inc., priority 2022, dated 2024).

The test system of one assay is RS4;11 cells. Briefly: Cell viability assay (CellTiter-Glo) in RS4;11 cell line. Format: cell-based. Conditions: 24 hours, 10% Human Serum, 50% decrease in cell viability. The source says:
(§1) The acute lymphoblastic leukemia (ALL) human cell line RS4;11 (ATCC, Manassas VA) was used as the primary human cell line to assess the cellular activity of compound of the present Examples in vitro and their efficacy in vivo. BH3 profiling, a mitochondrial assay that classifies blocks in the intrinsic apoptotic pathway, has shown that RS4;11 cells were highly dependent on Bcl-2 protein for survival and were sensitive to a Bcl-2 inhibitor (Blood. 2008; 111(4):2300-2309). […] The acute lymphoblastic leukemia cell line Molt-4, which is derived from immature T-lymphoid cells (T-ALL), was used as a counter screen assay.
(§2) Frozen RS4;11 or Molt-4 cells (ATCC, Manassas, VA, USA) were thawed overnight in RPMI 1640 media (Thermo Fisher Scientific, Waltham, MA, USA) supplemented with 1% penicillin/streptomycin (Thermo Fisher Scientific, Waltham, MA, USA), and 10% Human Serum (Sigma, St. Louis, MO, USA). 3000 Cells (0.1×10^6/mL) were seeded in each well of 384-well plate and were treated for 24 hours in a humidified chamber with 5% CO2. Cell viability was determined by CellTiter-Glo as described by the manufacturer's instructions (Promega Corporation, Madison, WI, USA). Responses were determined as a percentage of the control treated cells and the effective concentration (EC50) to induce a 50% decrease in cell viability were determined from sigmoidal dose-response curves using Dotmatics (Dotmatics Software Company, Bishops Stortford, Hertfordshire, England).
For orientation: ATP-based viability assays read luminescence as a measure of living cells.

The test system of a further assay is Molt-4 cells. Briefly: Cell viability counter screen assay (CellTiter-Glo) in Molt-4 cells. The class given is cell-based. Conditions: 24 hours, 10% Human Serum, 50% decrease in cell viability.
Text: as §1, §2
Background: Counterscreens check selectivity or assay interference.

In general, EC50 refers to the concentration at which the effect is half-maximal. A higher EC50 goes with weaker potency.

Molecules are shown by their SMILES.

Regarding `CC1(C)CC(c2ccc(Cl)cc2)=C2CN3CCN(c4ccc(C(=O)NS(=O)(=O)c5ccc(NCC6(O)CCOCC6)c([N+](=O)[O-])c5)c(N5CCCOc6nc7[nH]ccc7cc65)c4)C[C@H]3COCCCO[C@@H]2C1` [Example 18, 4-((4aS,10aR)-14-(4-chlorophenyl)-12,12-dimethyl-1,2,4a,5,8,9,10a,11,13,15-decahydro-7H,12H-benzo[f]pyrazino[2,1-c][1,8]dioxa[4]azacycloundecin-3(4H)-yl)-2-(3,4-dihydro-2H-pyrrolo[3′,2′:5,6]pyrido[2,3-b][1,4]oxazepin-1(7H)-yl)-N-((4-(((4-hydroxytetrahydro-2H-pyran-4-yl)methyl)amino)-3-nitrophenyl)sulfonyl)benzamide], the figures for the concentration giving a half-maximal response (EC50) in the assay with RS4;11 cells and in the assay with Molt-4 cells were 1.43 nM and 426 nM, respectively.

In the case of `CC1(C)CC(c2ccc(Cl)cc2)=C2CN3CCN(c4ccc(C(=O)NS(=O)(=O)c5ccc(OCC6(F)CCN(C7COC7)CC6)c([N+](=O)[O-])c5)c(N5CCCOc6nc7[nH]ccc7cc65)c4)C[C@H]3COCCCO[C@@H]2C1` [Example 19, 4-((4aS,10aR)-14-(4-chlorophenyl)-12,12-dimethyl-1,2,4a,5,8,9,10a,11,13,15-decahydro-7H,12H-benzo[f]pyrazino[2,1-c][1,8]dioxa[4]azacycloundecin-3(4H)-yl)-2-(3,4-dihydro-2H-pyrrolo[3′,2′:5,6]pyrido[2,3-b][1,4]oxazepin-1(7H)-yl)-N-((4-((4-fluoro-1-(oxetan-3-yl)piperidin-4-yl)methoxy)-3-nitrophenyl)sulfonyl)benzamide], the values for the EC50 in the assay with RS4;11 cells and in the assay on Molt-4 cells were 0.881 nM and 132 nM, respectively.

Take `C[C@@H]1CO[C@@H](COc2ccc(S(=O)(=O)NC(=O)c3ccc(N4CCN5CC6=C(c7ccc(Cl)cc7)CC(C)(C)C[C@H]6OCCCOC[C@@H]5C4)cc3N3CCCOc4nc5[nH]ccc5cc43)cc2[N+](=O)[O-])CO1` [Example 20, 4-((4aS,10aR)-14-(4-chlorophenyl)-12,12-dimethyl-1,2,4a,5,8,9,10a,11,13,15-decahydro-7H,12H-benzo[f]pyrazino[2,1-c][1,8]dioxa[4]azacycloundecin-3(4H)-yl)-2-(3,4-dihydro-2H-pyrrolo[3′,2′:5,6]pyrido[2,3-b][1,4]oxazepin-1(7H)-yl)-N-((4-(((2R,5R)-5-methyl-1,4-dioxan-2-yl)methoxy)-3-nitrophenyl)sulfonyl)benzamide]: the figures for the concentration for a half-maximal effect (EC50) with RS4;11 cells and with Molt-4 cells were 5.21 nM and 1610 nM, respectively.

With `C[C@@H]1CC[C@H](CNc2ccc(S(=O)(=O)NC(=O)c3ccc(N4CCN5CC6=C(c7ccc(Cl)cc7)CC(C)(C)C[C@H]6OCCCOC[C@@H]5C4)cc3N3CCCOc4nc5[nH]ccc5cc43)cc2[N+](=O)[O-])OC1` [Example 21, 4-((4aS,10aR)-14-(4-chlorophenyl)-12,12-dimethyl-1,2,4a,5,8,9,10a,11,13,15-decahydro-7H,12H-benzo[f]pyrazino[2,1-c][1,8]dioxa[4]azacycloundecin-3(4H)-yl)-2-(3,4-dihydro-2H-pyrrolo[3′,2′:5,6]pyrido[2,3-b][1,4]oxazepin-1(7H)-yl)-N-((4-((((2R,5R)-5-methyltetrahydro-2H-pyran-2-yl)methyl)amino)-3-nitrophenyl)sulfonyl)benzamide], the 50% effective concentration (EC50) with RS4;11 cells came to 4.89 nM; with Molt-4 cells, 3280 nM.

Consider `COCCN1CCC(F)(COc2ncc(S(=O)(=O)NC(=O)c3ccc(N4CCN5CC6=C(c7ccc(Cl)cc7)CC(C)(C)C[C@H]6OCCCOC[C@@H]5C4)cc3N3CCCOc4nc5[nH]ccc5cc43)cc2Cl)CC1` [Example 22, N-((5-chloro-6-((4-fluoro-1-(2-methoxyethyl)piperidin-4-yl)methoxy)pyridin-3-yl)sulfonyl)-4-((4aS,10aR)-14-(4-chlorophenyl)-12,12-dimethyl-1,2,4a,5,8,9,10a,11,13,15-decahydro-7H,12H-benzo[f]pyrazino[2,1-c][1,8]dioxa[4]azacycloundecin-3(4H)-yl)-2-(3,4-dihydro-2H-pyrrolo[3′,2′:5,6]pyrido[2,3-b][1,4]oxazepin-1(7H)-yl)benzamide], for which the figures for the EC50 with RS4;11 cells and in the assay on Molt-4 cells were 2.78 nM and 755 nM, respectively.

As for `C[C@H]1CC[C@H](CNc2ccc(S(=O)(=O)NC(=O)c3ccc(N4CCN5CC6=C(c7ccc(Cl)cc7)CC(C)(C)C[C@H]6OCCCOC[C@@H]5C4)cc3N3CCCOc4nc5[nH]ccc5cc43)cc2[N+](=O)[O-])OC1` [Example 23, 4-((4aS,10aR)-14-(4-chlorophenyl)-12,12-dimethyl-1,2,4a,5,8,9,10a,11,13,15-decahydro-7H,12H-benzo[f]pyrazino[2,1-c][1,8]dioxa[4]azacycloundecin-3(4H)-yl)-2-(3,4-dihydro-2H-pyrrolo[3′,2′:5,6]pyrido[2,3-h][1,4]oxazepin-1(7H)-yl)-N-((4-((((2R,5S)-5-methyltetrahydro-2H-pyran-2-yl)methyl)amino)-3-nitrophenyl)sulfonyl)benzamide], the EC50 is 5.29 nM in the assay on RS4;11 cells and above 10000 nM with Molt-4 cells.

As to `CO[C@H]1C[C@@H](CNc2ccc(S(=O)(=O)NC(=O)c3ccc(N4CCN5CC6=C(c7ccc(Cl)cc7)CC(C)(C)C[C@H]6OCCCOC[C@@H]5C4)cc3N3CCCOc4nc5[nH]ccc5cc43)cc2[N+](=O)[O-])C1` [Example 24], the figures for the EC50 in the assay on RS4;11 cells and in the assay on Molt-4 cells were 4.9 nM and above 10000 nM, respectively.

In the case of `COC1(CNc2ccc(S(=O)(=O)NC(=O)c3ccc(N4CCN5CC6=C(c7ccc(Cl)cc7)CC(C)(C)C[C@H]6OCCCOC[C@@H]5C4)cc3N3CCCOc4nc5[nH]ccc5cc43)cc2[N+](=O)[O-])CCOCC1` [Example 26, 4-((4aS,10aR)-14-(4-chlorophenyl)-12,12-dimethyl-1,2,4a,5,8,9,10a,11,13,15-decahydro-7H,12H-benzo[f]pyrazino[2,1-c][1,8]dioxa[4]azacycloundecin-3(4H)-yl)-2-(3,4-dihydro-2H-pyrrolo[3′,2′:5,6]pyrido[2,3-b][1,4]oxazepin-1(7H)-yl)-N-((4-(((4-methoxytetrahydro-2H-pyran-4-yl)methyl)amino)-3-nitrophenyl)sulfonyl)benzamide], the EC50 is 4.38 nM with RS4;11 cells and above 10000 nM in the assay with Molt-4 cells.

With `CC1(C)CC(c2ccc(Cl)cc2)=C2CN3CCN(c4ccc(C(=O)NS(=O)(=O)c5ccc(NC[C@@H]6CC[C@@H](O)CO6)c([N+](=O)[O-])c5)c(N5CCCOc6nc7[nH]ccc7cc65)c4)C[C@H]3COCCCO[C@@H]2C1` [Example 27, 4-((4aS,10aR)-14-(4-chlorophenyl)-12,12-dimethyl-1,2,4a,5,8,9,10a,11,13,15-decahydro-7H,12H-benzo[f]pyrazino[2,1-c][1,8]dioxa[4]azacycloundecin-3(4H)-yl)-2-(3,4-dihydro-2H-pyrrolo[3′,2′:5,6]pyrido[2,3-h][1,4]oxazepin-1(7H)-yl)-N-((4-((((2S,5R)-5-hydroxytetrahydro-2H-pyran-2-yl)methyl)amino)-3-nitrophenyl)sulfonyl)benzamide], the half-maximal effective concentration (EC50) in the assay with RS4;11 cells was 0.329 nM; in the assay on Molt-4 cells, 535 nM.

As for `CC1(C)CC(c2ccc(Cl)cc2)=C2CN3CCN(c4ccc(C(=O)NS(=O)(=O)c5ccc(NC[C@H]6CC[C@H](N7CCOCC7)CC6)c([N+](=O)[O-])c5)c(N5CCCOc6nc7[nH]ccc7cc65)c4)C[C@H]3COCCCO[C@@H]2C1` [Example 28, 4-((4aS,10aR)-14-(4-chlorophenyl)-12,12-dimethyl-1,2,4a,5,8,9,10a,11,13,15-decahydro-7H,12H-benzo[f]pyrazino[2,1-c][1,8]dioxa[4]azacycloundecin-3(4H)-yl)-2-(3,4-dihydro-2H-pyrrolo[3′,2′:5,6]pyrido[2,3-h][1,4]oxazepin-1(7H)-yl)-N-((4-((((1r,4r)-4-morpholinocyclohexyl)methyl)amino)-3-nitrophenyl)sulfonyl)benzamide], the EC50 with RS4;11 cells was 0.862 nM; in the assay with Molt-4 cells, 274 nM.

For the compound `COC1CO[C@H](CNc2ccc(S(=O)(=O)NC(=O)c3ccc(N4CCN5CC6=C(c7ccc(Cl)cc7)CC(C)(C)C[C@H]6OCCCOC[C@@H]5C4)cc3N3CCCOc4nc5[nH]ccc5cc43)cc2[N+](=O)[O-])C1` (stereo partly drawn) [Example 29, 4-((4aS,10aR)-14-(4-chlorophenyl)-12,12-dimethyl-1,2,4a,5,8,9,10a,11,13,15-decahydro-7H,12H-benzo[f]pyrazino[2,1-c][1,8]dioxa[4]azacycloundecin-3(4H)-yl)-2-(3,4-dihydro-2H-pyrrolo[3′,2′:5,6]pyrido[2,3-b][1,4]oxazepin-1(7H)-yl)-N-((4-((((2S)-4-methoxytetrahydrofuran-2-yl)methyl)amino)-3-nitrophenyl)sulfonyl)benzamide], the EC50 was 1.97 nM in the assay on RS4;11 cells and 1890 nM in the assay on Molt-4 cells.

With `CO[C@H]1C[C@H](Nc2ccc(S(=O)(=O)NC(=O)c3ccc(N4CCN5CC6=C(c7ccc(Cl)cc7)CC(C)(C)C[C@H]6OCCCOC[C@@H]5C4)cc3N3CCCOc4nc5[nH]ccc5cc43)cc2[N+](=O)[O-])C1` [Example 30, 4-((4aS,10aR)-14-(4-chlorophenyl)-12,12-dimethyl-1,2,4a,5,8,9,10a,11,13,15-decahydro-7H,12H-benzo[f]pyrazino[2,1-c][1,8]dioxa[4]azacycloundecin-3(4H)-yl)-2-(3,4-dihydro-2H-pyrrolo[3′,2′:5,6]pyrido[2,3-b][1,4]oxazepin-1(7H)-yl)-N-((4-(((1r,3r)-3-methoxycyclobutyl)amino)-3-nitrophenyl)sulfonyl)benzamide], the EC50 in the assay with RS4;11 cells is 4.1 nM; in the assay on Molt-4 cells, above 10000 nM.
